Source: article PMC10296061, “Inhibition of the Mitochondrial Carnitine/Acylcarnitine Carrier by Itaconate through Irreversible Binding to Cysteine 136: Possible Pathophysiological Implications” (Biomolecules, 2023)

Assays:
[1] = molecular target: T1, CAC C23V/C58V/C89S/C136V/C155V/C283S (C-less) mutant (Rattus norvegicus, UniProt P97521, C136V/C155V/C23V/C283S/C58V/C89S); experiment: Transport assay in proteoliposomes, C-less CAC mutant; assay type: biochemical
T1 construct: made in house; host or cells: E. coli C0214
T1 sequence (P97521 1-301 C23V/C58V/C89S/C136V/C155V/C283S): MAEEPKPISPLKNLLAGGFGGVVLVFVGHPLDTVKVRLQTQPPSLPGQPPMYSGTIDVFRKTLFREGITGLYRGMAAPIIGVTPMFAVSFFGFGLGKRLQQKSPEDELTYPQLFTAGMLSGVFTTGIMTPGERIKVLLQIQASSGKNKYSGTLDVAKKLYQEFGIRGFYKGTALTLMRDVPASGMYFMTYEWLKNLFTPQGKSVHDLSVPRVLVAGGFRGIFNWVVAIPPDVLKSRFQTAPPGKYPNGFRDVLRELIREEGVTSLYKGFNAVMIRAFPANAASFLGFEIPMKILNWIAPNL
Experimental: As previously described, the pMW7-WTratCAC recombinant plasmid was used for over-expressing the rat CAC [22]. The overlap extension method was used to introduce the mutations; in the main time, NdeI and HindIII restriction sites were also added using appropriate primers. The PCR products were purified by the QIAEX II Gel Extraction Kit (QIAGEN) and digested with NdeI and HindIII and then ligated into the pMW7. All mutations were verified by DNA sequencing. The resulting plasmid constructs were transformed into E. coli C0214. Overexpression, inclusion body fraction preparation, and purification of the CAC proteins were performed as previously described.
As previously described, recombinant CAC (WT and mutants) and ORC1 proteins were used for proteoliposome formation. For experiments with native CAC, ORC1, or ANT proteins, rat liver mitochondria, or HeLa cell mitochondria, the latter for the CAC alone, were first purified using the standard procedure of cell disruption and differential centrifugation. Then proteins were extracted using 3% Triton X-100 and reconstituted as described for the recombinant proteins. The concentration of intraliposomal carnitine and ornithine was 15 mM and 30 mM, respectively, in all samples.
To test the transport activity of the CAC, 550 μL of proteoliposomes was passed through a Sephadex G-75 column to remove the external substrate. Six hundred μL of the turbid eluate was collected, divided into samples of 100 μL each, and used for transport measurement by the inhibitor-stop method. Transport was started by adding 0.1 mM [^3H]carnitine ([^3H]ornitine or [^3H]ATP) to proteoliposome samples and stopped with 1.5 mM NEM (N-ethylmaleimide) at the indicated time interval. In the control samples, NEM was added with the labeled substrate at time zero. Transport rates were measured in 10 min, i.e., within the initial linear range of the time course, at 25 °C. After terminating the transport reaction, the external substrate was removed by chromatography on the Sephadex G-75 column, and the intraliposomal radioactivity was measured. The experimental values were corrected by subtracting the controls.
Figure 3 Identification of residue responsible for itaconate inhibition. (a) Dose–response analysis of the Cys mutants of CAC for the inhibition by itaconate was performed. Transport activity of the WT (○), C136A (●), C155A (Δ), C23V/C58V/C89S/C155V/C283S (▲), and C23V/C58V/C89S/C136V/C155V/C283S (□) was measured by adding 0.1 mM [^3H]carnitine after treatment by itaconate at the indicated concentrations. Transport activity (µmol/10 min/mg) is: WT 1.80 ± 0.31; C136A 0.91 ± 0.10; C155A 1.00 ± 0.17; C23V/C58V/C89S/C155V/C283S 1.02 ± 0.159; C23V/C58V/C89S/C136V/C155V/C283S 0.71 ± 0.22. (b) Dose–response analysis of proteoliposomes reconstituted native (○) or recombinant ORC (●) incubated with itaconate at the indicated concentrations. Transport activity was measured by adding 0.1 [^3H]ornithine, respectively, as described in Materials and Methods. The data are expressed as a percent of the controls (no addition of itaconate) and are means ± SD from three independent experiments.
Figure 4 Lysine contribution to CAC inhibition by itaconate. Protection of PLP (pyridoxal phosphate) from inhibition by itaconate on C-less CAC was carried out. C-less mutant (i.e., C23V/C58V/C89S/C136V/C155V/C283S) was reconstituted into proteoliposomes and treated or not treated with 30 mM PLP for 10 min (“Contr” or “PLP” column, respectively). […]

[2] = molecular target: T2, recombinant ORC (hORC1) (Homo sapiens, UniProt Q9Y619); experiment: [3H]ornithine transport in proteoliposomes reconstituted with recombinant ORC; assay type: biochemical; conditions: read-out: IC50 for itaconate inhibition
T2 construct: encodes a full-length hORC1 protein with a His6 tag before the termination codon; His6 (C); made in house; host or cells: E. coli C0214
T2 sequence (Q9Y619 1-301): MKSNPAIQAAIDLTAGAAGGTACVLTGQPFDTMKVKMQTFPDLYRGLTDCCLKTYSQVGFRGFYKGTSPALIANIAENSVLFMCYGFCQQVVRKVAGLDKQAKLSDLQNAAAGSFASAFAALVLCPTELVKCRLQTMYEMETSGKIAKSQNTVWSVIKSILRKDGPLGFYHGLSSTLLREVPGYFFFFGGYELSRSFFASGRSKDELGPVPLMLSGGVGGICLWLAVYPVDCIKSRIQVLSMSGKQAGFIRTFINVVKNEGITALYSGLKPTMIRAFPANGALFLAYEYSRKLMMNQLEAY
Description: The 903 bp cDNA coding for the hORC1Wild Type (WT) protein was amplified from the Mega Man Human Transcriptome Library with the forward and reverse primers 5′-[…]-3′ and 5′-[…]-3′, containing the NdeI and HindIII sites, respectively. The amplified cDNA was then cloned in the NdeI/HindIII sites of the pET-21a(+) expression vector. The resulting recombinant plasmid, defined as pET-21a(+)-hORC1, encodes a full-length hORC1 protein with a His6 tag before the termination codon. […]
To test the transport activity of the CAC, 550 μL of proteoliposomes was passed through a Sephadex G-75 column to remove the external substrate. […] Transport rates were measured in 10 min, i.e., within the initial linear range of the time course, at 25 °C. After terminating the transport reaction, the external substrate was removed by chromatography on the Sephadex G-75 column, and the intraliposomal radioactivity was measured. […]
Figure 3 Identification of residue responsible for itaconate inhibition. […] Transport activity of the WT (○), C136A (●), C155A (Δ), C23V/C58V/C89S/C155V/C283S (▲), and C23V/C58V/C89S/C136V/C155V/C283S (□) was measured by adding 0.1 mM [^3H]carnitine after treatment by itaconate at the indicated concentrations. […] Transport activity was measured by adding 0.1 [^3H]ornithine, respectively, as described in Materials and Methods. […]

In the case of `C=C(CC(=O)O)C(=O)O` [itaconate], the “effect on PLP pretreated (protected) C-less CAC” value ([1]; 15 mM itaconate added to 30 mM PLP pretreated protein, reactants removed by G-75) is reported as “inefficacy”, the “effect on C-less CAC transport” value ([1]; 15 mM itaconate, no PLP preincubation) is reported as “inhibited” and the IC50 ([1]; C-less mutant, read-out: IC50 for itaconate inhibition) is reported as 15 ± 2.4 mM. The IC50 [2] was 44 ± 6 mM.
